Reference: patent US20230165792A1, “LIQUID FORMULATION AND PHARMACEUTICAL PRODUCT CONTAINING CILASTATIN” (Denka Company Limited, priority 2020, published 2023)
Read-outs that look alike come from different tables or passages of the source.

Assays:
[1] = for Absorbance: 400 nm; for Cilastatin content: HPLC
Method: Then, the glass vial was sealed and heated at 80° C. for 4 hours (to obtain a nitrogen-purged, heated sample). The aqueous solution before heating and the two samples prepared above were measured for absorbance, which served as an index for the degree of coloration, and also analyzed by HPLC to confirm the content of cilastatin.
The analysis conditions are detailed below.
Absorbance Measurement Conditions:
Equipment: Hitachi U-3900
Optical path length: 1 cm
HPLC Analysis Conditions:
Detector: Ultraviolet absorptiometer (measurement wavelength: 216 nm)
Column: 1.7 μm octadecylsilylated silica gel column (Acquity BEH C18, produced by Waters), 2.1 mm I.D., 50 mm long
Column temperature: 40° C.
Mobile phase: 25 mM phosphate buffer containing 9.5% acetonitrile (pH 4.25)
Amount of sample injected: 5 μL (prepared to 100 μg/mL)
Retention time: Cilastatin (about 2.6 min.)

[2] = N2-purged headspace, heated 80° C. for 4 hours

Structure (SMILES): CC1(C)C[C@@H]1C(=O)N/C(=C\CCCCSC[C@H](N)C(=O)O)C(=O)O [cilastatin sodium, (Z)-7-[[(R)-2-amino-2-carboxyethyl]thio]-2-[[[(S)-2,2-dimethylcyclopropyl]carbonyl]amino]-2-heptenoic acid]
- appearance according to visual observation ([1]; 200 mg/mL aqueous solution): slightly yellow
- pH at the time of preparation ([1]; 200 mg/mL aqueous solution): 6.79
- Absorbance [1, 2]: 0.166
- Cilastatin content [1, 2]: 99.15%
- Absorbance ([1]; before heating, 200 mg/mL aqueous solution, optical path 1 cm): 0.040
- Cilastatin content ([1]; before heating): 98.99%
- Absorbance ([1]; heated sample: sealed glass vial, 80° C. for 4 hours): 0.203
- content of cilastatin (after storage at 45° C.): decreased slightly
- color of solution (after storage at 45° C. for 23 days): yellow
- color of solution (after storage at 45° C. for 65 days): brown
- color of solution (at the time of preparation, deionized water): slightly yellow
